Test results as given in patent US20050033056A1, “Hydroxylated indole derivatives and uses thereof” (priority 2001, published 2005).
Entries after “also recorded” stand apart in the source; their conditions may differ. Read-outs that look alike come from different tables or passages of the source.

Tests used:
[1] = biological target: T1, cDNA-expressed recombinant CYP2D6 (Homo sapiens, UniProt P10635); assay: Apparent Ki with recombinant CYP2D6 (bufuralol 1'-hydroxylation; Dixon plots, SNLR); format: in vitro ADME; conditions: for Ki: recombinant CYP2D6
T1 construct: purchased Gentest Corp. (Woburn, Mass.); host or cells: insect cells (microsomal preparation)
T1 sequence (P10635 whole entry): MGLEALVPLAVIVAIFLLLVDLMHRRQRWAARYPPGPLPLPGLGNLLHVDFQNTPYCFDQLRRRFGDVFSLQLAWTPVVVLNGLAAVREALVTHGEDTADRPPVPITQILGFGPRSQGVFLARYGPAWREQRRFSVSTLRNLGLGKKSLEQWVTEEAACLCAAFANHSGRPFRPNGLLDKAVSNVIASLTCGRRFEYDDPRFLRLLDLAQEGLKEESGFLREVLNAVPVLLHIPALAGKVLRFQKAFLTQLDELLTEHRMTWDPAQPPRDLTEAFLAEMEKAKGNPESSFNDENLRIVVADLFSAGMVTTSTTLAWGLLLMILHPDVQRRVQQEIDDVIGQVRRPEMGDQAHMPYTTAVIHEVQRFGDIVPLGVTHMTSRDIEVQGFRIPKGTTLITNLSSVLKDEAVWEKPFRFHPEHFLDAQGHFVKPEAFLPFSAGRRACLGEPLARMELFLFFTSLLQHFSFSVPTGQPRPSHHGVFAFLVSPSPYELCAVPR
Protocol: If inhibition was detected, the inhibitory potency was determined using recombinant CYPs. Compound 1 appeared to inhibit the activities of CYP2D6 and CYP2C19. Therefore, three concentrations of S-mephenyloin (30, 80, and 200 μM) and bufuralol (5, 10, and 40 μM), and a range of concentrations (0-200 μM) of Compound 1 were used for the construction of Dixon plots and simultaneously nonlinear regression (SNLR) analyses were performed. The incubation conditions and sample preparations were the same as previously described.
3. CYP2D6-mediated bufuralol 1′-hydroxylation (Boobis et al., Bioch. Pharmacol. 34:65-71, 1985): The HPLC system was interfaced with a SCIEX API2000 triple quadrupole mass spectrometer (PE Biosystem, Foster City, Calif.). A Sulpelco Discovery C18 column (150×2.1 mm) and isocratic mobile phase was applied. The mobile phase, 10 mM ammonium acetate-acetonitrile/60:40, was run at 0.2 mL/minute. The operation of the LC/MS/MS was controlled by use of software, MacChrom (Version 1.6). The MS/MS was operated at positive ESI with 5.5 kV ionization potential and 500° C. ion source temperature. Multiple reaction monitoring (MRM) was applied for the quantification. The MRM transition ions were m/z 278→186 for 1′-hydroxybufuralol, and m/z 266→234 for the internal standard (1S) albendazole.
Data were acquired and analyzed by ChemStation (Version 6.03, Hewlett Packard, Waldbronn, Germany) for 6-, 7-, and 10-hydroxywarfarin and 6-hydroxychlorzoxazone, and MacQuan (Version 1.6, PE Biosystem, Foster City, Calif.) for 1′-hydroxybufuralol and 4′-hydroxymephenytoin. Quantification was based on peak area ratios of metabolites over the respective IS against the respective concentration of the metabolites. The standard curves were generated by linear regression with (6-, 7-, and 10-hydroxywarfarin, 1′-hydroxybufuralol, and 4′-hydroxymephenytoin) or without (6-hydroxychlorzoxazone) a weighting factor (1/x^2). The metabolic rates were determined using Excel (Microsoft Office 97, Microsoft Corporation, Redmond, Wash.) or SigmaPlot (Version 6.00, SPSS Inc. Chicago, Ill.). […]

CYP2D6 = CYP2D6 (Homo sapiens, UniProt P10635); assay: Compound 1 metabolism / metabolite formation by recombinant CYP2D6; format: in vitro ADME; design: purchased Gentest Corp. (Woburn, Mass.); host or cells: insect cells (microsomal preparation)
Chain of CYP2D6 (P10635 whole entry): as above
Protocol: The metabolism of Compound 1 was determined by the disappearance of Compound 1 or the appearance of Compound 1 metabolites in reaction mixtures as compared to respective controls. Compound 1 was incubated in the reconstituted in vitro reaction systems containing pooled human liver S9 fractions, microsomal preparations, or recombinant hepatic CYP forms, including CYP1A2, CYP2C9, CYP2C19, CYP2D6, CYP2E1, and CYP3A4. The reaction mixture (total volume of 250 μL) contained 0.5 mg of liver microsomal protein, 50 or 25 pmol of recombinant CYP, and Compound 1 (50-80 μM) in 50 mM Tris buffer containing 15 mM MgCl2 (pH 7.4). After incubating at 37° C. with gentle shaking for 1 minute, the reaction was initiated by adding 25 μL of NADPH solution (20 mg/mL), and was carried out for 1 hour. The reaction was terminated by quickly cooling the test tube on ice, followed by the addition of an equal volume of 100% methanol. The samples were centrifuged in a desktop centrifuge at 14,000 rpm for 5 minutes, and the supernatants were filtered through syringe filters (13 mm, 0.45 μm). The filtrates were subjected to analysis using LC/MS (ion trap) or LC/MS/MS.
1. LC/MS (LCQ ion trap mass spectrometer, Finnigan Corp., San Jose, Calif.): Hewlett Packard 1100 HPLC system (Waldbronn, Germany) consisted of a binary pump, an autosampler, a column compartment unit, and an online variable wavelength UV detector (VWD). The detector was monitored at 270 nm, which is the UVmax of Compound 1 predetermined by scanning between 225-400 nm using a photodiode array detector (PDA). The metabolites were separated on a Hewlett Packard Eclipse C18 column (150×2.1 mm). The mobile phases were 10 nmM ammonium acetate at pH 4.8 (A) and acetonitrile (B). The gradient (B) was 10% (0-6 minutes), 22% (12-22 minutes), 90% (25-30 minutes), and 10% (31 minutes and after). The flow rate was 0.25 mL/minute. Software Navigator (Version 1.2, Finnigan Corp.) was used to control the HPLC and MS and to acquire the data. […]

CNC(=O)Cc1ccc2ccn(C3CCN(CCc4ccccc4F)CC3)c2c1 [Compound 1, N-methyl-[1-[1-(2-fluorophenethyl)piperidine-4-yl]-1H-indol-6-yl] acetamide]
type of inhibition of CYP2D6 ([1]; Dixon plots and SNLR analyses): competitive inhibitor; also recorded: primarily, if not fully, competitive
Ki ([1]; Dixon plots, bufuralol 5, 10, 40 μM, read-out: apparent Ki, CYP2D6, estimated by Dixon plots): ~20 µM
Ki ([1]; SNLR, competitive inhibition model, read-out: apparent Ki, CYP2D6 inhibition, determined by SNLR): 15 µM
metabolism of Compound 1 by CYP2D6 (in words) (CYP2D6; approximately 50 μM of Compound 1): metabolized
Rel. Amount (%) (CYP2D6; recombinant CYP2D6, estimated by UV absorbance at 270 nm, metabolite formed or Compound 1 left after 1 hour with NADPH): 78%
